Test results taken from patent publication US7858635B2 (priority 2005, dated 2010).

Assays:
M1 muscarinic receptor = target: T1, M1 muscarinic receptor (Homo sapiens, UniProt P11229); experiment: Functional mobilization of intracellular calcium (FLIPR, Fluo-3), M1-CHO cells; assay type: cell-based; details: compound nos. 1-454; for Emax / M1 Efficacy: 100% efficacy is the maximum response obtained with the Carbachol control; for Emax: read-out: M1 Efficacy; for M1 Activity: M1-CHO cells, calcium mobilization
T1 construct: expressed in transfected cells; host or cells: CHO cells (M1-CHO, under zeocin and G418 selection)
T1 sequence (P11229 1-460): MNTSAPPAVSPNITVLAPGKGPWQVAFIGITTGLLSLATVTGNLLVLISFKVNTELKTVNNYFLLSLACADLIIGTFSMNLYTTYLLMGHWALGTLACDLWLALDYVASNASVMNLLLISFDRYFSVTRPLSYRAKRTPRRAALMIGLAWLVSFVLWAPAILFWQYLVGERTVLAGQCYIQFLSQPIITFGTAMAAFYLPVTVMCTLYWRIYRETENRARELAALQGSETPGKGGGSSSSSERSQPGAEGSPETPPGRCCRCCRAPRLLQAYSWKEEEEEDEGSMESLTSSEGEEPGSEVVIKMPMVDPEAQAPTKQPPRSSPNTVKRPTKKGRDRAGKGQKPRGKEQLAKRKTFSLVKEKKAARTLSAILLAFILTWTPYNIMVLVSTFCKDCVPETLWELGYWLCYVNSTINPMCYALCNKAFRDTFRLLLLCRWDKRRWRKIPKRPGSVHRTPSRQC
Summary of the method: (§1)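 Fluo-3 read-out, ex 488/em 540 nm, 60 sec on FLIPR 3. For agonist mode, compound added directly; for inhibition, 15 min compound pre-incubation before carbachol at EC80 (added as a 3× solution), or co-application. Buffer pH 7.4 with 1 mM probenecid; DMSO 0.5%.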

M4 muscarinic receptor = target: T2, M4 muscarinic receptor (Homo sapiens, UniProt P08173); experiment: Functional mobilization of intracellular calcium (FLIPR, Fluo-3), M4-CHO cells; assay type: cell-based; details: compound nos. 1-454; for Emax / M4 Efficacy: 100% efficacy is the maximum response obtained with the Carbachol control; for Emax: read-out: M4 Efficacy; for M4 Activity: M4-CHO cells, calcium mobilization
T2 construct: expressed in transfected cells; host or cells: CHO cells (M4-CHO, under puromycin, zeocin and blasticidin selection)
T2 sequence (P08173 1-479): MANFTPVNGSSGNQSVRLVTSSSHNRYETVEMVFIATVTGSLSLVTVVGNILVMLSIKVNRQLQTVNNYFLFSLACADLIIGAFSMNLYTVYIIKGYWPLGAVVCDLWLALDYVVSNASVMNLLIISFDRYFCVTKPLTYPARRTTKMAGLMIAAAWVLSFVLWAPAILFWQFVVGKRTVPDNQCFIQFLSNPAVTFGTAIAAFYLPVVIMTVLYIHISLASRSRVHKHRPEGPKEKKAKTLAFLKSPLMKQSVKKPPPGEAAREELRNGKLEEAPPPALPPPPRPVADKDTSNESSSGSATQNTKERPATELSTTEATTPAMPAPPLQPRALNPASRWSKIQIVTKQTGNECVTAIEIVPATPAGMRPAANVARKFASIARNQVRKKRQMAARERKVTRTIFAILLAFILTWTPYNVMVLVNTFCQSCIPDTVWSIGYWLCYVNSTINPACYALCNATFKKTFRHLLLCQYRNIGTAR
Summary of the method: as §1

Structure (SMILES)	Emax (M1 muscarinic receptor) [%]	M1 Activity (M1 muscarinic receptor)	Emax (M4 muscarinic receptor) [%]	M4 Activity (M4 muscarinic receptor)	M1 Efficacy (M1 muscarinic receptor)	M4 Efficacy (M4 muscarinic receptor)
CCOC(=O)N1CCC(N2CCC3(CC2)CN(C(C)=O)c2ccc(-c4ccc(C)cc4)cc23)CC1 [compound 58, ethyl 4-(1-acetyl-5-p-tolylspiro[indoline-3,4′-piperidine]-1′-yl)piperidine-1-carboxylate]	65 to 85	+++ (activity was measured to be less than or equal to 0.7 μM)	55 to 70	++ (activity was measured to be between 0.1 μM and 4.0 μM)	–	–
CCOC(=O)N1C2CCC1CC(N1CCC3(CC1)CN(C(=O)c1snnc1C)c1ccc(F)cc13)C2 (stereo not shown) [compound 59]	< 65	+++ (activity was measured to be less than or equal to 0.7 μM)	55 to 70	++ (activity was measured to be between 0.1 μM and 4.0 μM)	–	–
CCOC(=O)N1CCC(CN2CCC3(CC2)CN(C(C)=O)c2ccc(F)cc23)CC1 [compound 60]	65 to 85	++ (activity was measured to be between 0.7 μM and 3.0 μM)	55 to 70	+ (activity was measured to be greater than or equal to 4.0 μM)	–	–
CCOC(=O)N1CCC(N2CCC3(CC2)C[C@H](NC(C)=O)c2ccccc23)CC1 [compound 61]	–	+++ (activity was measured to be less than or equal to 0.7 μM)	–	++ (activity was measured to be between 0.1 μM and 4.0 μM)	++ (efficacy was calculated to be between 85% and 65%)	++ (efficacy was calculated to be between 70% and 55%)
C#CCCOC(=O)N1CCC(N2CCC3(CC2)CN(C(C)=O)c2ccc(F)cc23)CC1 [compound 62]	< 65	+++ (activity was measured to be less than or equal to 0.7 μM)	55 to 70	++ (activity was measured to be between 0.1 μM and 4.0 μM)	–	–
CCOC(=O)N1CCC(N2CCC3(CC2)CN(C(=O)OCC(C)(C)C)c2ccc(F)cc23)CC1 [compound 63]	< 65	+++ (activity was measured to be less than or equal to 0.7 μM)	< 55	+ (activity was measured to be greater than or equal to 4.0 μM)	–	–
COCCOC(=O)N1CCCC(N2CCC3(CC2)CN(C(C)=O)c2ccc(F)cc23)CC1 (stereo not shown) [compound 65]	65 to 85	++ (activity was measured to be between 0.7 μM and 3.0 μM)	< 55	+ (activity was measured to be greater than or equal to 4.0 μM)	–	–
CCOC(=O)N1CCC(N2CCC3(CC2)CN(C(=O)c2ccc(OC(F)(F)F)cc2)c2ccc(F)cc23)CC1 [compound 66]	> 85	+++ (activity was measured to be less than or equal to 0.7 μM)	> 70	+++ (activity was measured to be less than or equal to 0.1 μM)	–	–
CC(=O)N1CC2(CCN(C3CC4CCC(C3)N4C(=O)O[C@@H]3CCOC3)CC2)c2cc(F)ccc21 (stereo partly shown) [compound 67]	< 65	+++ (activity was measured to be less than or equal to 0.7 μM)	< 55	++ (activity was measured to be between 0.1 μM and 4.0 μM)	–	–
O=C(OC1CCC1)N1C2CCC1CC(N1CCC3(CCc4ccccc43)CC1)C2 (stereo not shown) [compound 68]	< 65	++ (activity was measured to be between 0.7 μM and 3.0 μM)	< 55	+ (activity was measured to be greater than or equal to 4.0 μM)	–	–
O=C(C1CCC1)N1CC2(CCN(C3CC4CCC(C3)N4C(=O)O[C@@H]3CCOC3)CC2)c2cc(F)ccc21 (stereo partly shown) [compound 69]	< 65	++ (activity was measured to be between 0.7 μM and 3.0 μM)	< 55	++ (activity was measured to be between 0.1 μM and 4.0 μM)	–	–
CS(=O)(=O)N[C@H]1CC2(CCN(C[C@H]3C[C@H]4C=C[C@H]3C4)CC2)c2ccccc21 [compound 70]	65 to 85	++ (activity was measured to be between 0.7 μM and 3.0 μM)	55 to 70	+ (activity was measured to be greater than or equal to 4.0 μM)	–	–
COCCOC(=O)N1C2CCC1CC(N1CCC3(CC1)C(=O)Nc1ccccc13)C2 (stereo not shown) [compound 71]	< 65	+++ (activity was measured to be less than or equal to 0.7 μM)	< 55	++ (activity was measured to be between 0.1 μM and 4.0 μM)	–	–
Cc1ccc2c(c1)C1(CCN(C3C4CCCC3CCC4)CC1)CN2 (stereo not shown) [compound 72]	65 to 85	+++ (activity was measured to be less than or equal to 0.7 μM)	55 to 70	++ (activity was measured to be between 0.1 μM and 4.0 μM)	–	–
CCOC(=O)N1C2CCC1CC(N1CCC3(CC1)CN(C(=O)c1cc(C)oc1C)c1ccc(F)cc13)C2 (stereo not shown) [compound 73]	65 to 85	+++ (activity was measured to be less than or equal to 0.7 μM)	55 to 70	++ (activity was measured to be between 0.1 μM and 4.0 μM)	–	–
CCCc1ccc2c(c1)C1(CCN(C3CCN(C(=O)OCC)CC3)CC1)CN2C(C)=O [compound 74]	65 to 85	+++ (activity was measured to be less than or equal to 0.7 μM)	55 to 70	++ (activity was measured to be between 0.1 μM and 4.0 μM)	–	–
CC(=O)N1CC2(CCN(CC3CCCOC3)CC2)c2cc(F)ccc21 (stereo not shown) [compound 75]	< 65	+++ (activity was measured to be less than or equal to 0.7 μM)	55 to 70	++ (activity was measured to be between 0.1 μM and 4.0 μM)	–	–
COCCOC(=O)N1C2CCC1CC(N1CCC3(CC1)CN(C(C)=O)c1ccc(F)cc13)C2 (stereo not shown) [compound 76]	65 to 85	+++ (activity was measured to be less than or equal to 0.7 μM)	55 to 70	++ (activity was measured to be between 0.1 μM and 4.0 μM)	–	–
CCOC(=O)N1CCC(N2CCC3(CC2)CN(C(=O)c2ccc(F)cc2)c2ccc(F)cc23)CC1 [compound 77]	65 to 85	+++ (activity was measured to be less than or equal to 0.7 μM)	< 55	++ (activity was measured to be between 0.1 μM and 4.0 μM)	–	–
CCOC(=O)N1CCC(N2CCC3(CC2)CN(C(C)=O)c2ccc(-c4ccccc4C)cc23)CC1 [compound 78]	65 to 85	+++ (activity was measured to be less than or equal to 0.7 μM)	< 55	++ (activity was measured to be between 0.1 μM and 4.0 μM)	–	–
CCCOC(=O)N1CCC(N2CCC3(CC2)CN(C(C)=O)c2ccc(F)cc23)CC1 [compound 79]	< 65	++ (activity was measured to be between 0.7 μM and 3.0 μM)	< 55	+ (activity was measured to be greater than or equal to 4.0 μM)	–	–
COCCOC(=O)N1CC2(CCN(C3CC4CCC(C3)N4C(=O)O[C@H]3CCOC3)CC2)c2cc(F)ccc21 (stereo partly shown) [compound 80]	< 65	++ (activity was measured to be between 0.7 μM and 3.0 μM)	< 55	++ (activity was measured to be between 0.1 μM and 4.0 μM)	–	–
C#CCOC(=O)N1CCC(N2CCC3(CC2)CN(C(C)=O)c2ccc(C)cc23)CC1 [compound 81]	< 65	++ (activity was measured to be between 0.7 μM and 3.0 μM)	< 55	+ (activity was measured to be greater than or equal to 4.0 μM)	–	–
CC(=O)N1CC2(CCN(CC3CCN(C(=O)O[C@@H]4CCOC4)CC3)CC2)c2cc(F)ccc21 [compound 82]	–	+++ (activity was measured to be less than or equal to 0.7 μM)	–	++ (activity was measured to be between 0.1 μM and 4.0 μM)	++ (efficacy was calculated to be between 85% and 65%)	++ (efficacy was calculated to be between 70% and 55%)
CCOC(=O)N1C2CCC1CC(N1CCC3(CC1)CN(C(=O)Nc1c(C)noc1C)c1ccc(F)cc13)C2 (stereo not shown) [compound 83]	< 65	+++ (activity was measured to be less than or equal to 0.7 μM)	< 55	+ (activity was measured to be greater than or equal to 4.0 μM)	–	–
